Earlier results on two compounds are cited in US7750010B2, “Tricyclic anilide spirohydantion CGRP receptor antagonists” (Merck Sharp & Dohme Corp., priority 2004, dated 2010).

No end group written: not given here.

Series [1] relates to facial blood flow. The settings on record: marmoset, electrical stimulation of the trigeminal ganglion.
The test system of series [2] is facial blood flow. The note with it: rat, trigeminal ganglion stimulation.
For another series, the system named is middle meningeal artery. The note with it: rats, electrical stimulation of the dura mater, prior administration.

Take `NCCCC[C@H](NC(=O)[C@@H](Cc1cc(Br)c(O)c(Br)c1)NC(=O)N1CCC(N2Cc3ccccc3NC2=O)CC1)C(=O)N1CCN(c2ccncc2)CC1` [BIBN4096BS]: in the series with facial blood flow [1], the “effect on increase in facial blood flow” value is reported as “could be blocked”.

As to “CGRP(8-37): a fragment of CGRP that lacks seven N-terminal amino acid residues; a peptide CGRP antagonist (VTHRLAGLLSRSGGVVKNNFVPTNVGSKAF; ends and bridges not checked; UniProt P06881 90-119, looked up, fragment)”, the “effect on increased facial blood flow” value with facial blood flow [2] is given as “inhibited”. The “effect on increase in diameter of the middle meningeal artery” value with middle meningeal artery is recorded as “blocked”.
